Assay results as given in ChEMBL document CHEMBL1201862, “PubChem BioAssay data set” (2004).
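Where inhibition never reached the appropriate level, the endpoint shown equals the highest concentration tested. Otherwise, values were interpolated linearly from a five-concentration, 48-hour dose response in 96-well plates. The concentration for 50% growth inhibition is given as GI50.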 Calls of active or inactive are those of the source. Rule as the data show it: active = GI50 up to about 1.1 µM and inactive = higher. Residues, ends and D or L forms follow the SMILES beside them. *: point of attachment. Cbz = O=C(OCc1ccccc1)*; Boc = CC(C)(C)OC(=O)*; OSu = O=C1CCC(=O)N1O*; Bn = c1ccc(C*)cc1

Tests used:
Experiment in all cases: DTP human tumour cell line panel, 48 h
DU-145 = tested on: DU-145
HCT-116 = tested on: HCT-116
HOP-62 = tested on: HOP-62
HT-29 = tested on: HT-29
Hs-578T = tested on: Hs-578T
KM12 = tested on: KM12
LOX IMVI = tested on: LOX IMVI
M14 = tested on: M14
MDA-MB-231 = tested on: MDA-MB-231
NCI-H226 = tested on: NCI-H226
OVCAR-4 = tested on: OVCAR-4
OVCAR-8 = tested on: OVCAR-8
SF-295 = tested on: SF-295
SK-MEL-28 = tested on: SK-MEL-28
SK-OV-3 = tested on: SK-OV-3
SN12C = tested on: SN12C
TK-10 = tested on: TK-10
UACC-257 = tested on: UACC-257
K562 = tested on: K562
T47D = tested on: T47D

Measured: GI50

Cc1csc(NNC(N)=O)n1
inactive: DU-145 > 100 µM | HCT-116 > 100 µM | HOP-62 > 100 µM | HT-29 > 100 µM | Hs-578T > 100 µM | KM12 > 100 µM | LOX IMVI > 100 µM | M14 > 100 µM | MDA-MB-231 > 100 µM | NCI-H226 > 100 µM | OVCAR-4 > 100 µM | OVCAR-8 > 100 µM | SF-295 > 100 µM | SK-MEL-28 > 100 µM | SK-OV-3 > 100 µM | SN12C > 100 µM | TK-10 > 100 µM | UACC-257 > 100 µM

COc1ccc2c(c1)CN1C(=N2)CSC1c1ccccc1Cl (configuration not stated)
inactive: HCT-116 17.5 µM | HOP-62 31.6 µM | HT-29 17.4 µM | Hs-578T 27.9 µM | K562 5.33 µM | KM12 18 µM | LOX IMVI 15 µM | M14 18.3 µM | MDA-MB-231 21.8 µM | NCI-H226 12.6 µM | OVCAR-4 20.1 µM | OVCAR-8 16.7 µM | SF-295 24.7 µM | SK-MEL-28 11.1 µM | SK-OV-3 24.3 µM | SN12C 19.1 µM | T47D 27.7 µM | TK-10 23.7 µM | UACC-257 13.4 µM

C=CCCCC1(C)CCNC1=S (configuration not stated)
inactive: DU-145 > 100 µM | HCT-116 > 100 µM | HOP-62 > 100 µM | HT-29 > 100 µM | Hs-578T > 100 µM | K562 > 100 µM | M14 > 100 µM | MDA-MB-231 > 100 µM | OVCAR-4 > 100 µM | OVCAR-8 > 100 µM | SF-295 > 100 µM | SK-MEL-28 > 100 µM | SK-OV-3 > 100 µM | SN12C > 100 µM | T47D > 100 µM | TK-10 > 100 µM | UACC-257 > 100 µM

c1cc(-c2ccc(-c3ccsc3)s2)cs1
inactive: DU-145 > 100 µM | HCT-116 > 100 µM | HOP-62 39.6 µM | HT-29 39.5 µM | Hs-578T 40.5 µM | K562 > 100 µM | KM12 > 10 µM | LOX IMVI 66.7 µM | M14 31 µM | NCI-H226 47.5 µM | OVCAR-4 18.1 µM | OVCAR-8 48.8 µM | SF-295 54 µM | SK-OV-3 > 100 µM | SN12C > 100 µM | T47D > 100 µM | TK-10 76.4 µM | UACC-257 > 100 µM

C[C@]12CC[C@H](O)CC1=CC[C@@H]1[C@@H]2CC[C@]2(C)/C(=N/OCCN3CCCC3)CC[C@@H]12
inactive: HCT-116 14.9 µM | HOP-62 21.3 µM | HT-29 2.7 µM | Hs-578T 22.9 µM | K562 4.36 µM | KM12 13.7 µM | LOX IMVI 19.1 µM | MDA-MB-231 19.9 µM | NCI-H226 14.5 µM | OVCAR-4 16.4 µM | OVCAR-8 16.3 µM | SF-295 19.4 µM | SK-MEL-28 16.5 µM | SN12C 29 µM | TK-10 24.1 µM | UACC-257 14.6 µM

COc1ccc(CCN2CCc3c(C)c(C#N)c4nc5ccccc5n4c32)cc1OC
inactive: DU-145 81.7 µM | HCT-116 28.7 µM | HOP-62 33.7 µM | HT-29 32.6 µM | Hs-578T 12.9 µM | K562 15.6 µM | LOX IMVI 37.7 µM | M14 > 100 µM | MDA-MB-231 19.1 µM | NCI-H226 27.5 µM | OVCAR-4 26 µM | OVCAR-8 35.3 µM | SF-295 42.4 µM | SK-MEL-28 39.5 µM | SK-OV-3 81.3 µM | SN12C 34.2 µM | TK-10 64.1 µM | UACC-257 33.2 µM

O=C(CCCCCCCCC(=O)NN1C(=O)/C(=C\c2ccc(O)c(O)c2)SC1c1c(O)ccc2ccccc12)NN1C(=O)C(=Cc2ccc(O)c(O)c2)SC1c1c(O)ccc2ccccc12 (configuration not stated)
inactive: DU-145 8.28 µM | HCT-116 4.05 µM | HOP-62 2.45 µM | HT-29 10.8 µM | K562 5.64 µM | KM12 23.9 µM | LOX IMVI 1.79 µM | M14 5.02 µM | MDA-MB-231 > 23.8 µM | NCI-H226 6.08 µM | OVCAR-4 5.16 µM | OVCAR-8 4.49 µM | SF-295 3.86 µM | SK-MEL-28 10 µM | SK-OV-3 6.28 µM | SN12C 27.2 µM | T47D 11.3 µM | TK-10 > 50.7 µM | UACC-257 10.7 µM

C[N+](C)(C)CC(=O)N/N=C(/CC(=O)CC(C1=C(O)c2ccccc2OC1)c1ccccc1)C(=O)Nc1cccc(Cl)c1 (configuration not stated)
inactive: DU-145 > 100 µM | HCT-116 > 100 µM | HOP-62 > 100 µM | HT-29 > 100 µM | K562 > 100 µM | KM12 > 100 µM | LOX IMVI > 100 µM | M14 > 100 µM | MDA-MB-231 > 100 µM | NCI-H226 > 100 µM | OVCAR-4 > 100 µM | OVCAR-8 > 100 µM | SF-295 > 100 µM | SK-MEL-28 > 100 µM | SK-OV-3 > 100 µM | SN12C > 100 µM | T47D > 100 µM | TK-10 > 100 µM | UACC-257 > 100 µM

CCOC(=O)CCC(C(=O)OCC)n1nc2ccc(Nc3c(C)[n+]([O-])c4ccc(Cl)cc4[n+]3[O-])cc2n1 (configuration not stated)
inactive: DU-145 20.1 µM | HCT-116 20.6 µM | HOP-62 17 µM | HT-29 30.9 µM | Hs-578T 21.4 µM | K562 41.4 µM | KM12 56.8 µM | LOX IMVI 14.4 µM | M14 24.1 µM | NCI-H226 20.3 µM | OVCAR-4 28.8 µM | OVCAR-8 21.5 µM | SF-295 16.8 µM | SK-OV-3 21.2 µM | SN12C 18.9 µM | T47D 21.7 µM | TK-10 28.9 µM | UACC-257 24.5 µM

CC(C)(C)OC(=O)NC(Cc1ccc(OCc2ccccc2)cc1)C(=O)NC(CCCCNC(=O)OCc1ccccc1)C(=O)NC(CCCCNC(=O)OCc1ccccc1)C(=O)ON1C(=O)CCC1=O (configuration not stated) (Boc-Tyr(Bn)-Lys(Cbz)-Lys(Cbz)-OSu; configuration not given here)
inactive: DU-145 88.5 µM | HCT-116 24.9 µM | HOP-62 > 100 µM | HT-29 41.1 µM | Hs-578T 16.4 µM | KM12 46.1 µM | M14 > 100 µM | OVCAR-4 60.7 µM | OVCAR-8 29.1 µM | SF-295 24 µM | SK-MEL-28 30.6 µM | SK-OV-3 > 100 µM | SN12C > 10 µM | T47D 21 µM | TK-10 > 100 µM | UACC-257 > 100 µM

Cc1ccc(C(=O)c2[nH]c(Nc3ccc(Cl)cc3)c(C(=S)Nc3ccccc3)c2N)cc1
inactive: DU-145 8.05 µM | HCT-116 3.72 µM | HOP-62 4.41 µM | HT-29 4.43 µM | K562 7.38 µM | KM12 5.26 µM | LOX IMVI 3.91 µM | M14 12.9 µM | MDA-MB-231 10.1 µM | NCI-H226 14 µM | OVCAR-4 1.97 µM | OVCAR-8 4.68 µM | SF-295 2.13 µM | SK-MEL-28 4.21 µM | SK-OV-3 14.2 µM | SN12C 13.1 µM | T47D 15.5 µM | TK-10 5.36 µM | UACC-257 18.7 µM
